Earlier results, collected in patent US9062045B2, “Triazolopyridine compounds” (Novartis AG, priority 2012, dated 2015).

Conditions: cited from earlier work

Cn1cc(-c2ccc3nnc(Sc4ccc5[nH]c(=O)ccc5c4)n3n2)cn1 [2-quinolinone-SGX523 metabolite, 6-(6-(1-methyl-1H-pyrazol-4-yl)-[1,2,4]triazolo[4,3-b]pyridazin-3-ylthio)quinolin-2(1H)-one]
solubility compared with SGX523: markedly less-soluble
